Measurements taken from patent US8354455B2, “Prodrugs containing novel bio-cleavable linkers” (Piramal Enterprises Limited and Apparao Satyam, priority 2004, dated 2013).
Converted amounts (≈) assume the structure as drawn.

Tests used:
[1] = tested on: MES-induced seizures; assay: Maximal Electroshock Test (MES), Test 1, mice i.p.; type: in vivo
[2] = tested on: convulsant metrazol; assay: Subcutaneous Metrazol Seizure Threshold Test (scMET), Test 1, mice i.p.; type: in vivo; settings: mice, i.p.
[3] = tested on: MES-induced seizures; assay: animal or person; type: in vivo, rats; settings: Test 2, rats p.o., 50 mg/kg
[4] = tested on: mice
[5] = tested on: rats; settings: rat, in vivo, po, 50 mg/kg
Description: Acute Toxicity—Minimal Motor Impairment (MMI): To assess a compound's undesirable side effects (toxicity), animals were monitored for overt signs of impaired neurological or muscular function.
Groups of at least 8 rats received various doses of the candidate compound until at least two points were established between the limits of 100 percent protection or toxicity and zero percent protection or minimal toxicity. The 95 percent confidence limits, slopes of the regression lines and standard errors of the slopes were calculated for each quantitative determination. Rats received test compounds orally.
This secondary evaluation determines the time to peak effect (TPE), neurotoxicity, median effective dose (ED50) and biological response.

[6] = Water solubility (HPLC of supernatant); type: physicochemical
Method: Water solubility: Paclitaxel and its prodrug I-S22-PD2 (2 mg each) were suspended in 1 mL water or PBS-buffer (pH 7.4). The suspensions were sonicated for 15 min and centrifuged (13,000 g) for 10 min. The supernatant was analyzed using HPLC.
HPLC: Waters RP18 column ([…], X-Terra); DAD-HP Agilent (Model 1100); eluent: CH3CN:H2O (gradient 0-100% acetonitrile in 0-15 min). The UV-detector was set at […]. The concentrations were determined by measuring the relative area of paclitaxel or I-S22-PD2. […] (i.e., ˜0.2 mg/mL).

SMILES | activity in MES model (in words) ([1]; Test 1, mice i.p.) | MES (number of animal protected/number of animal tested) ([1]; mice, i.p., 0.5 h, 300 mg/kg (+)) | MES 0.5 h ([1]; mice, i.p., 0.5 h, symbol = dose with activity) | MES 4.0 h ([1]; mice, i.p., 4.0 h, symbol = dose with activity) | ScMET (number of animal protected/number of animal tested) ([2]; 0.5 h, 300 mg/kg (+)) | ScMET 0.5 h ([2]; 0.5 h, symbol = dose with activity) | ScMET 4.0 h ([2]; 4.0 h, symbol = dose with activity) | MES (number of animal protected/number of animal tested) ([3]; 0.50 h) | MES (number of animal protected/number of animal tested) ([3]; 1.00 h) | MES (number of animal protected/number of animal tested) ([3]; 2.00 h) | MES (number of animal protected/number of animal tested) ([3]; 4.00 h) | toxicity (in words) ([4]; Test 1, mice i.p.) | Rotorod Toxicity 0.5 h ([4]; mice, i.p., 0.5 h, symbol = dose with toxicity) | Rotorod Toxicity 4.0 h ([4]; mice, i.p., 4.0 h, symbol = dose with toxicity) | Toxicity (number of animals exhibiting toxicity/number of animals tested) [5] | solubility at 15 min ([6]; aqueous buffer, thermodynamic from solid, 2 mg suspended in 1 mL water or PBS-buffer (pH 7.4), sonicated, centrifuged) [µg/mL] | solubility relative to paclitaxel ([6]; water or PBS-buffer (pH 7.4)) [times]
CCOC(=O)CC1(CNC(=O)OCCSSCC(=O)OC)CCCCC1 [I-A1-PD5] | active in MES | (1/1) | + (+ = activity or toxicity at 300 mg/kg) | — (— = no activity or no toxicity at 300 mg/kg) | (3/5) | + (+ = activity or toxicity at 300 mg/kg) | — (— = no activity or no toxicity at 300 mg/kg) | 0/4 | 0/4 | 1/4 | 1/4 | no or mild toxicity | + (+ = activity or toxicity at 300 mg/kg) | — (— = no activity or no toxicity at 300 mg/kg) | 0/4 | – | –
CC(=O)O[C@H]1C(=O)[C@@]2(C)C([C@H](OC(=O)c3ccccc3)[C@]3(O)C[C@H](OC(=O)[C@H](OC(=O)OCCSSCCOC(=O)CCC(=O)O)[C@@H](NC(=O)c4ccccc4)c4ccccc4)C(C)=C1C3(C)C)[C@]1(OC(C)=O)CO[C@@H]1C[C@@H]2O (some centres unmarked) [I-S22-PD2] | – | – | – | – | – | – | – | – | – | – | – | – | – | – | – | ~200 (≈ 176 µM) | 20
